# ChEMBL document CHEMBL1151000, “Novel synthetic rotenoids with blocked B/C ring systems” (Bioorg Med Chem Lett, 1992)
# Assays:
# [1] = The compound was evaluated for the inhibition of NADH dehydrogenase
# [2] = The compound was evaluated for the insecticidal activity against housefly without cytochrome P450 oxidase inhibitor piperonyl butoxide; details: musca domestica
# [3] = The compound was evaluated for the insecticidal activity against housefly with cytochrome P450 oxidase inhibitor piperonyl butoxide; assay type: ADME; details: musca domestica
SMILES,IC50 [1] [nM],LD50 [2] [ug fly-1],LD50 [3] [ug fly-1]
COc1cc2c(cc1OC)[C@]1(C)C(=O)c3ccc4c(c3O[C@@H]1CO2)C[C@H](C(C)C)O4,16,,
C=C(C)[C@H]1Cc2c(ccc3c2O[C@@H]2COc4cc(OC)c(OC)cc4[C@@H]2C3=O)O1 [ROTENONE],3.5,10,5
C=C(C)[C@H]1Cc2c(ccc3c2O[C@@H]2COc4cc(OC)c(OC)cc4[C@]2(C)C3=O)O1,17,2,0.2
C=C(C)[C@H]1Cc2c(ccc3c2O[C@@H]2COc4cc(OC)c(OC)cc4[C@@]2(C)C3=O)O1.C=C(C)[C@H]1Cc2c(ccc3c2O[C@H]2COc4cc(OC)c(OC)cc4[C@]2(C)C3=O)O1,360,> 10,4
C=C(C)[C@H]1Cc2c(ccc3c2OC24COc5cc(OC)c(OC)cc5C2(C4)C3=O)O1 (some centres not stated),80,,10
